In patent US7709636B2, “Pyrazole sulfonylurea compound and herbicide” (Nissan Chemical Industries, Ltd., priority 2004, dated 2010):

Columns and labels:
Scirpus juncoides = experiment: Herbicidal effect test in submerged condition by treatment during weed-growth stage (1); type: in vivo; details: 0.64 g/a, treated at 1st to 2nd leaf stage, 3 weeks after treatment
Experimental: (§1) Herbicidal Effect Test in Submerged Condition by Treatment During Weed-Growth Stage (1) After alluvial soil was placed in a styrol cup of 1/30000 are, water was poured therein and mixed, and adjusted to a submerged condition of water depth 4 cm. After seeds of Echinochloa crus-galli, Scirpus juncoides and Monochoria vaginalis were sown in the cup, the plants were grown by putting the cup in a green house at 25 to 30° C. When Echinochloa crus-galli, Scirpus juncoides and Monochoria vaginalis reached 1st to 2nd leaf stage, the wettable powder of the present invention prepared according to Formulation Example 1 was diluted with water so as to give a predetermined formulation amount, and the surface of the water was treated with the diluted wettable powder. The herbicidal effect for each plant was investigated 3 weeks after treatment with the herbicide according to the criteria indicated in Test Example 1.

Monochoria vaginalis = experiment: as above; type: in vivo; details: 0.64 g/a, treated at 1st to 2nd leaf stage, 3 weeks after treatment
Experimental: as §1

Echinochloa crus-galli [1] = experiment: as above; type: in vivo; details: 0.64 g/a, treated at 1st to 2nd leaf stage, 3 weeks after treatment
Experimental: as §1

Polygonum blumei = experiment: Herbicidal effect test by soil treatment; type: in vivo; details: 1.6 g/a, 3 weeks after treatment
Text: (§2) Herbicidal Effect Test by Soil Treatment
(§3) Sterilized diluvial soil was placed in a plastic box having a size of length 21 cm, width 13 cm and depth 7 cm, seeds Echinochloa crus-galli, Digitaria adscendes, Setaria viridis, Avena fatua, Black-grass, Abutilon avicennae, Ambrosia elatior, Amaranthus retroflexus, Chenopodium album, Polygonum blumei, Stellaria media, Zea mays (corn), Glycine max (soybean), Oryza sativa (rice), Triticum aestivum (wheat) and Beta vulgaris (beat) were sown interspatially, covered with about 1.5 cm of soil, and then the wettable powder of the present invention prepared according to Formulation Example 1 was diluted with water so as to give a predetermined formulation amount, and the surface of the soil was uniformly treated with the diluted wettable powder by use of a small-sized spray. The herbicidal effect for each plant was investigated 3 weeks after treatment with the herbicide according to the criteria indicated in Test Example 1.

Setaria viridis = experiment: Herbicidal effect test by soil treatment; type: in vivo; details: 1.6 g/a, 3 weeks after treatment
Text: as §2, §3

Digitaria adscendes = experiment: Herbicidal effect test by soil treatment; type: in vivo; details: 1.6 g/a, 3 weeks after treatment
Text: as §2, §3

Chenopodium album = experiment: Herbicidal effect test by soil treatment; type: in vivo; details: 1.6 g/a, 3 weeks after treatment
Text: as §2, §3

Black-grass = experiment: Herbicidal effect test by soil treatment; type: in vivo; details: 1.6 g/a, 3 weeks after treatment
Text: as §2, §3

Avena fatua = experiment: Herbicidal effect test by soil treatment; type: in vivo; details: 1.6 g/a, 3 weeks after treatment
Text: as §2, §3

Beta vulgaris (beet) = experiment: Herbicidal effect test by soil treatment; type: in vivo; details: 1.6 g/a, 3 weeks after treatment
Text: as §2, §3

Amaranthus retroflexus = experiment: Herbicidal effect test by soil treatment; type: in vivo; details: 1.6 g/a, 3 weeks after treatment
Text: as §2, §3

Abutilon avicennae = experiment: Herbicidal effect test by soil treatment; type: in vivo; details: 1.6 g/a, 3 weeks after treatment
Text: as §2, §3

soybean (Glycine max) = experiment: Herbicidal effect test by soil treatment; type: in vivo; details: 1.6 g/a, 3 weeks after treatment
Text: as §2, §3

Ambrosia elatior = experiment: Herbicidal effect test by soil treatment; type: in vivo; details: 1.6 g/a, 3 weeks after treatment
Text: as §2, §3

[2] = system: Triticum aestivum (wheat); experiment: Herbicidal effect test by soil treatment; type: in vivo; details: 1.6 g/a, 3 weeks after treatment
Text: as §2, §3

Echinochloa crus-galli [3] = experiment: Herbicidal effect test by soil treatment; type: in vivo; details: 1.6 g/a, 3 weeks after treatment
Text: as §2, §3

Stellaria media = experiment: Herbicidal effect test by soil treatment; type: in vivo; details: 1.6 g/a, 3 weeks after treatment
Text: as §2, §3

corn (Zea mays) = experiment: Herbicidal effect test by soil treatment; type: in vivo; details: 1.6 g/a, 3 weeks after treatment
Text: as §2, §3

direct sown rice = experiment: Herbicidal effect test by soil treatment; type: in vivo, Oryza sativa; details: 1.6 g/a, 3 weeks after treatment
Text: as §2, §3

SMILES: COc1cc(OC)nc(NC(=O)NS(=O)(=O)c2c(C3=NOC(C)CO3)c(C)nn2C)n1 (stereo not shown) [Compound 9, N-((4,6-dimethoxypyrimidin-2-yl)aminocarbonyl)-1,3-dimethyl-4-(6-methyl-5H,6H-1,4,2-dioxadin-3-yl)pyrazole-5-sulfonamide]
- herbicidal effect, B: Scirpus juncoides (Scirpus juncoides): 5 (Herbicidal rate 90% or more (almost complete death))
- herbicidal effect, C: Monochoria vaginalis (Monochoria vaginalis): 5 (Herbicidal rate 90% or more (almost complete death))
- herbicidal effect, A: Echinochloa crus-galli (Echinochloa crus-galli [1]): 5 (Herbicidal rate 90% or more (almost complete death))
- herbicidal effect, L: Polygonum blumei (Polygonum blumei): 5 (Herbicidal rate 90% or more (almost complete death))
- herbicidal effect, E: Setaria viridis (Setaria viridis): 4 (Herbicidal rate 70% or more and less than 90%)
- herbicidal effect, D: Digitaria adscendes (Digitaria adscendes): 4 (Herbicidal rate 70% or more and less than 90%)
- herbicidal effect, K: Chenopodium album (Chenopodium album): 5 (Herbicidal rate 90% or more (almost complete death))
- herbicidal effect, G: Black-grass (Black-grass): 5 (Herbicidal rate 90% or more (almost complete death))
- herbicidal effect, F: Avena fatua (Avena fatua): 3 (Herbicidal rate 40% or more and less than 70%)
- herbicidal effect, f: Beta vulgaris (beet) (Beta vulgaris (beet)): 5 (Herbicidal rate 90% or more (almost complete death))
- herbicidal effect, J: Amaranthus retroflexus (Amaranthus retroflexus): 5 (Herbicidal rate 90% or more (almost complete death))
- herbicidal effect, H: Abutilon avicennae (Abutilon avicennae): 4 (Herbicidal rate 70% or more and less than 90%)
- herbicidal effect, c: soybean (Glycine max) (soybean (Glycine max)): 5 (Herbicidal rate 90% or more (almost complete death))
- herbicidal effect, I: Ambrosia elatior (Ambrosia elatior): 5 (Herbicidal rate 90% or more (almost complete death))
- herbicidal effect, e: Triticum aestivum (wheat) [2]: 5 (Herbicidal rate 90% or more (almost complete death))
- herbicidal effect, A: Echinochloa crus-galli (Echinochloa crus-galli [3]): 4 (Herbicidal rate 70% or more and less than 90%)
- herbicidal effect, M: Stellaria media (Stellaria media): 5 (Herbicidal rate 90% or more (almost complete death))
- herbicidal effect, b: corn (Zea mays) (corn (Zea mays)): 5 (Herbicidal rate 90% or more (almost complete death))
- herbicidal effect, d: direct sown rice (direct sown rice): 5 (Herbicidal rate 90% or more (almost complete death))
